Test results taken from ChEMBL document CHEMBL1201862, “PubChem BioAssay data set” (2004).
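Interpolation was linear, between the two tested concentrations surrounding the appropriate level; five concentrations were tested over 48 hours in 96-well plates. Abbreviation: GI50, concentration required for 50% inhibition of growth.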 The source made the active and inactive calls. Rule as the data show it: active = GI50 up to about 1.1 µM and inactive = higher.

Columns and labels:
Experiment in all cases: DTP human tumour cell line panel, 48 h
MDA-N = tested on: MDA-N
BT-549 = tested on: BT-549
LXFL 529 = tested on: LXFL 529
KM-20L2 = tested on: KM-20L2
M19-MEL = tested on: M19-MEL
DLD-1 = tested on: DLD-1
HOP-18 = tested on: HOP-18
XF498 = tested on: XF498

SMILES | GI50 (MDA-N) | GI50 (BT-549) | also measured
COc1ccc(CSCc2cc(OC)c(OC)c(OC)c2)cc1 | 7.26 µM (inactive) | > 84.5 µM (inactive) | –
CC(=O)O[C@H]1C#C/C=C\C#CC[C@@H]2C(=O)N[C@@H]12 | 81.7 µM (inactive) | 30.7 µM (inactive) | –
O=C(NC(Cc1c[nH]c2ccccc12)C(=O)O)/C(=C/c1ccccc1O)NC(=O)c1ccccc1 (stereo not given) | 7.05 µM (inactive) | 18.4 µM (inactive) | –
Cc1nc2ccc(S(=O)(=O)O)cc2c(=O)n1-c1ccc(C(=O)NN2C(=O)C(Cl)C2c2cccs2)cc1 (stereo not given) | 26.1 µM (inactive) | > 100 µM (inactive) | –
Cc1ccc(Nc2c3c(c(C#N)c4nc5ccccc5n24)CCCC3)cc1 | 28.7 µM (inactive) | 35.8 µM (inactive) | –
COC(=O)c1ccc(CCC2=CC(=O)C=CC2=O)cc1 | 12.5 µM (inactive) | 12 µM (inactive) | –
O=C1C2C(C(=O)N1c1ccccc1)C1(c3ccccc3)CCC2(C(=O)c2ccccc2)O1 (stereo not given) | > 10 µM (inactive) | > 10 µM (inactive) | –
N=C(N)SCc1ccc(N=C=S)cc1 | 13.7 µM (inactive) | – | –
CC(=O)Oc1ccc2c(c1)Oc1cc(C(C)=O)ccc1C21OC(=O)c2ccccc21 (stereo not given) | > 100 µM (inactive) | > 100 µM (inactive) | –
C=CCOCCCCC(C(C)=O)C(=O)OC (stereo not given) | – | – | GI50 (LXFL 529): > 100 µM (inactive); GI50 (KM-20L2): > 100 µM (inactive); GI50 (M19-MEL): > 100 µM (inactive); GI50 (DLD-1): > 100 µM (inactive); GI50 (HOP-18): > 100 µM (inactive); GI50 (XF498): > 100 µM (inactive)
O=C1C(c2c(O)[nH]c3ccc(Cl)cc23)=Nc2ccccc21 | 6.38 µM (inactive) | 66.4 µM (inactive) | –
CCOC(=O)C1=C(C)N(CC(C)C)C2(O)C(OC)CC(=O)C3C(=O)N(c4ccccc4)C(=O)C132 (stereo not given) | – | 40.4 µM (inactive) | –
COC(=O)[C@H]1CO[C@@H](C(C)(C)C)N1C(=O)N1C=CC(=O)C[C@@H]1C | > 100 µM (inactive) | > 100 µM (inactive) | –
N=c1c2ccccc2nc2oc3ccccc3n12 | – | 51.2 µM (inactive) | –
Cc1c(C)c(C)c(CC2(C)CSC2)c(CC2(C)CSC2)c1C | > 100 µM (inactive) | > 100 µM (inactive) | –
O=C1NC(O)CCN1C1CC(O)C(CO)O1 (stereo not given) | > 100 µM (inactive) | > 100 µM (inactive) | –
COc1cc(OC)cc(OCc2nc3cc(C(F)(F)F)ccc3nc2-c2ccccc2)c1 | > 100 µM (inactive) | > 100 µM (inactive) | –
O=C1/C(=C/c2cccc3ccccc23)CCc2ccc([N+](=O)[O-])cc21 | 8.81 µM (inactive) | 16.1 µM (inactive) | –
COc1cc(C23OCC(Cc4cc5c(cc42)OCO5)C3CO)cc(OC)c1OC (stereo not given) | 0.402 µM (active) | 56.6 µM (inactive) | –
COC1CC(N)C(O)C(C)O1 (stereo not given) | > 100 µM (inactive) | > 100 µM (inactive) | –
N=C1OC(c2cccc(Cl)c2)C(NNS(=O)(=O)c2ccccc2)=C1O (stereo not given) | 14.5 µM (inactive) | 37 µM (inactive) | GI50 (LXFL 529): 16.8 µM (inactive); GI50 (KM-20L2): 39.4 µM (inactive); GI50 (M19-MEL): 24 µM (inactive); GI50 (DLD-1): 15 µM (inactive); GI50 (HOP-18): > 100 µM (inactive)
COC(=O)c1ccc(O)c2nc3c(C=O)c(O)cc(O)c3nc12 [LOMOFUNGIN] | 1.67 µM (inactive) | 0.614 µM (active) | –
C(=C\c1ccc2ccccc2c1Nc1ccccc1)/c1ccccc1 | – | – | GI50 (LXFL 529): > 73.1 µM (inactive); GI50 (KM-20L2): 45.1 µM (inactive); GI50 (M19-MEL): > 92.7 µM (inactive); GI50 (DLD-1): 17.3 µM (inactive); GI50 (HOP-18): 26.4 µM (inactive); GI50 (XF498): 18.4 µM (inactive)
C=C1CC2(C)CCC(OC(=O)C3(C)OC3C)C(C)(OC(C)=O)C2CC1=C(C)C (stereo not given) | > 100 µM (inactive) | > 100 µM (inactive) | –
COc1ccc(-c2nc3cc(C(F)(F)F)ccc3n2CC2CCCN3CCCCC23)cc1 (stereo not given) | 19.3 µM (inactive) | – | –
C=CCSC1=N/C(=C\c2ccc(Cl)cc2)C(=O)N1CC=C | 32.7 µM (inactive) | 23.5 µM (inactive) | –
Cc1ccc(NC(=O)C2C3C=CC(O3)C2C(=O)O)cc1 (stereo not given) | – | – | GI50 (LXFL 529): > 100 µM (inactive); GI50 (KM-20L2): > 100 µM (inactive); GI50 (M19-MEL): > 100 µM (inactive); GI50 (DLD-1): > 100 µM (inactive); GI50 (HOP-18): > 100 µM (inactive); GI50 (XF498): 71.9 µM (inactive)

SMILES | GI50 (MDA-N) | GI50 (BT-549) | also measured
NS(=O)(=O)c1ccc(N2C(=O)C(=O)N(c3ccccc3)C2=S)cc1 | > 100 µM (inactive) | – | –
CC(=O)Nc1ccc(NC(=O)c2c(Cl)c(Cl)c(Cl)c(Cl)c2-c2nc3ccccc3[nH]2)cc1 | 35.3 µM (inactive) | 43.1 µM (inactive) | –
O=[N+]([O-])c1ccc(NN=C2CN3CCN(C2)c2ccccc23)c([N+](=O)[O-])c1 | > 100 µM (inactive) | > 100 µM (inactive) | –
COc1ccc2c(c1)-c1c(c3ccccc3n1CCN1CCOCC1)CC2 | 36.7 µM (inactive) | 23 µM (inactive) | –
Cc1coc2c1CC1(C)C(CCC(O)C1C)C2 (stereo not given) | > 100 µM (inactive) | > 100 µM (inactive) | –
O=C(O)/C(=C/c1ccccc1)c1ccccc1 | > 100 µM (inactive) | > 100 µM (inactive) | –
OCC1CCCC1O (stereo not given) | > 100 µM (inactive) | > 100 µM (inactive) | –
O=c1oc2ccccc2c(Nc2ccc3c(c2)Oc2ccccc2O3)c1[N+](=O)[O-] | 49.8 µM (inactive) | 25.6 µM (inactive) | –
c1ccc2c(c1)nc1n2CCNC1 | > 100 µM (inactive) | > 100 µM (inactive) | –
CC1(CC(=O)OC(C#C[Si](C)(C)C)Cc2ccccc2)OCCO1 (stereo not given) | > 100 µM (inactive) | > 100 µM (inactive) | –
CCN(CC)CCCCC1CCN(CC(=O)N2CC(C)C(=O)Nc3ccccc32)CC1 (stereo not given) | – | – | GI50 (LXFL 529): > 100 µM (inactive); GI50 (KM-20L2): > 100 µM (inactive); GI50 (M19-MEL): > 100 µM (inactive); GI50 (DLD-1): > 100 µM (inactive); GI50 (HOP-18): > 100 µM (inactive)
COC(=O)c1ccccc1C1CN=NC12Cc1ccccc1C2=O (stereo not given) | > 100 µM (inactive) | 49.2 µM (inactive) | –
O=S(=O)(CCn1c(Sc2ccccc2)c(Sc2ccccc2)c2ccccc21)c1ccccc1 | – | > 100 µM (inactive) | –
OCC1C(O)C(O)[C@@H]2SCCN12 (stereo not given in full) | – | > 100 µM (inactive) | –
CN(C)P(=O)(Oc1occc1C(O)Cc1ccccc1)N(C)C (stereo not given) | > 100 µM (inactive) | > 100 µM (inactive) | –
Cc1nnc(N)nc1/C=C\c1ccc(Cl)cc1Cl | 55.5 µM (inactive) | 72.3 µM (inactive) | –
CN(C)c1ccc(/C=C(\NC(=O)c2ccccc2)c2nn(C)c(=O)o2)cc1 | 53.6 µM (inactive) | > 100 µM (inactive) | –
COc1cc(C2SC(C)C(=O)N2c2ccc(-c3csc(NS(=O)(=O)c4ccc(Cl)c(OC)c4)n3)cc2)ccc1O (stereo not given) | 41.2 µM (inactive) | – | –
c1ccc([B-]23Oc4ccccc4[NH+]2c2ccccc2O3)cc1 (stereo not given) | – | – | GI50 (LXFL 529): 63.8 µM (inactive); GI50 (DLD-1): 46 µM (inactive); GI50 (HOP-18): > 100 µM (inactive)
CNc1ccc(C(=O)CC(O)CCC(C)C2OC(=O)CC(O)CC(=O)CC(O)CC(O)CC(O)CC(O)CC3(O)CC(O)C(C(=O)N4CCOCC4)C(CC(OC4OC(C)C(O)C(N)C4O)\C=C/C=C\C=C/C=C/C=C/C=C\C=C/C2C)O3)cc1 (stereo not given) | 0.304 µM (active) | 0.241 µM (active) | –
CN(C)CCOC1(CC2CCCCC2)CCC(C(C)(C)C)CC1 (stereo not given) | 4.25 µM (inactive) | 6.19 µM (inactive) | –
O=[N+]([O-])c1ccccc1[S+]([O-])c1ccccc1 (stereo not given) | – | – | GI50 (LXFL 529): > 100 µM (inactive); GI50 (M19-MEL): 21.3 µM (inactive); GI50 (DLD-1): 71 µM (inactive); GI50 (XF498): > 100 µM (inactive)
N#Cc1c(N2CCCC2)ncn(Cc2ccccc2)c1=S | > 100 µM (inactive) | > 100 µM (inactive) | –
Cc1ccc2c(c1C)-c1c(ccc(C)c1C)C(=O)C2=O | 0.173 µM (active) | 0.335 µM (active) | –
Cc1ccc(/N=C2\SC(=NN(C)C)S\C2=N/c2ccc(C)cc2)cc1 | > 100 µM (inactive) | – | –
CCCOC(=O)NC(C)C(=O)NC(CCC(=O)NC(CCCC(N)C(=O)O)C(=O)NC(C)C(=O)O)C(=O)O (stereo not given) | 21.1 µM (inactive) | 20.7 µM (inactive) | –
